Laboratory results published in patent EP0174114A1, “Platinum complexes of ascorbic acid and ascorbic acid analogs” (priority 1984, dated 1986).
“And” between values parts separate entries of the source, which are not always exact repeats. Equal entries are not always repeated.

Test system: S180 ascites
Assay: Screening for antitumor activity against S180 ascites (increase in life span, survivors)
Assay type: in vivo, female CFW Swiss mice
Description: The various Pt ascorbate analogs were tested for antitumor activity against S180 ascites in female CFW Swiss mice by the following procedure.
CFW mice, averaging 20 g, are immediately inspected and placed in newly prepared cages. On day zero the mice are inoculated with 0.2 ml of a freshly prepared saline suspension (0.15 M NaCl) containing […], or a total of 2 x 10^6 cells. This inoculum is freshly prepared using "transfer" mice which have been injected with tumor cells the previous week. This inoculum is the end product of a series of steps which involve (1) the removal of the cells from the peritoneal cavity of the sacrificed transfer mouse, (2) alternate centrifugation-washing (2-3 times with cold saline) to remove occasional blood and other undesirable components, and finally (3) dilution (1:3) of the packed cell volume with saline (the final centrifugation being carried out at 1,000 rpm for 2 min). A cell count is made on a 2,000--fold dilution of this 1:3 suspension by means of a Coulter Counter. A final dilution to 1 x 10^7 cells/ml is made based on the averaged count. On day 1, solutions of the test compounds are prepared and the mice injected, with each mouse of a set of six being injected with the same test compound at the same dose level. Also, on this day, two types of controls (6 mice/set) are employed: (1) Normal (1 set): 0.5 ml of the solvent medium used for the test compound, and (2) Positive control (1 set): a known anti-tumor agent (cis-[Pt(NH3)2cI2] in saline at 8 mg/kg), used to test the response to the biological system.
The effectiveness of a compound is measured in terms of the increase in life span (% ILS) of the test animals relative to the controls (calculated from the day of tumor inoculation, day zero). In order to standardize the test data and permit intercomparisons to be made, the day of evaluation is arbitrarily taken as that day corresponding to twice the mean life-span (or average day of death) of the normal controls. This sets a practical upper limit of 100% on the ILS attainable. For calculation purposes, survivors on the day of evaluation are considered to have died on that day. The % ILS is formulated as: [formula]
ILS values above 50% represent significant activity; those above 75% represent excellent activity.

[1] = dose 5 mg/kg, administered in HNO3 ascorbic acid
[2] = dose 10 mg/kg, administered in HNO3 ascorbic acid
[3] = dose 20 mg/kg, administered in HNO3 ascorbic acid
[4] = dose 40 mg/kg, administered in HNO3 ascorbic acid
[5] = dose 80 mg/kg, administered in HNO3 ascorbic acid
[6] = dose 160 mg/kg, administered in HNO3 ascorbic acid
[7] = dose 10 mg/kg, administered in water
[8] = dose 20 mg/kg, administered in water
[9] = dose 40 mg/kg, administered in water
[10] = dose 80 mg/kg, administered in water
[11] = dose 160 mg/kg, administered in water
[12] = dose 320 mg/kg, administered in water
[13] = dose 5 mg/kg, administered in water
[14] = dose 5 mg/kg, administered in water, injected day 1, 5 mg/kg
[15] = dose 640 mg/kg, administered in water
[16] = dose 800 mg/kg, administered in water
[17] = dose 1280 mg/kg, administered in water
[18] = positive control of the same experiment, in saline at 8 mg/kg, 8 mg/kg
[19] = dose 320 mg/kg, administered in HNO3 ascorbic acid
[20] = dose 640 mg/kg, administered in HNO3 ascorbic acid
[21] = dose 1920 mg/kg, administered in water

Molecule | 30-Day Survivors [7] | %ILS [7] [%] | 30-Day Survivors [8] | %ILS [8] [%] | 30-Day Survivors [9] | %ILS [9] [%] | 30-Day Survivors [10] | %ILS [10] | 30-Day Survivors [11] | %ILS [11] | 30-Day Survivors [12] | %ILS [12] | further results
Pt(ethylenediamine)(ascorbate) [listing 1 of 2 here] | – | – | – | – | – | – | – | – | – | – | – | – | activity against Sarcoma 180 ascites tumors in comparison with the unacidified complex (after contact with an aqueous acid solution): enhanced activity; 30-Day Survivors [1]: 0/6; %ILS [1]: 3%; 30-Day Survivors [2]: 0/6; %ILS [2]: 27%; 30-Day Survivors [3]: 0/6; %ILS [3]: 45%; 30-Day Survivors [4]: 3/6; %ILS [4]: 75%; 30-Day Survivors [5]: 3/6; %ILS [5]: 93%; 30-Day Survivors [6]: 2/6; %ILS [6]: 70%
Cis-[Pt(NH3)2(ascorbate)].2H2O [cis[Pt(NH3)2-(ascorbate)]] | 0/6 | -2 | 0/6 | 6 | 0/6 | -6 | 0/6 | -1% | 1/6 | 57% | 3/6 | 79% | –
[Pt(cis-dach)(ascorbate)].3H2O [[Pt(cis-dach)-(ascorbate)] (Isomer VII)] | 0/6 | 20 | 0/6 | 20 | 0/6 | 43 | 1/6 and 2/6 | 71% and 79% | 5/6 and 3/6 | 98% and 69% | 0/6 | -59% | 30-Day Survivors [13]: 0/6; %ILS [14]: 12%
[Pt(R,R-trans-dach)(ascorbate)].3H2O [[Pt(R,R-trans-dach)-(ascorbate)]] | 0/6 | 9 | 0/6 | 6 | 0/6 | 9 | 0/6 | 15% and 7% | 0/6 and 0/5 | – | 3/6 | 65% and 55% | 30-Day Survivors [15]: 5/6; %ILS [15]: 100%; 30-Day Survivors [16]: 5/6; %ILS [16]: 72%; 30-Day Survivors [17]: 6/6; %ILS [17]: 100%
Pt(ethylenediamine)(ascorbate) [listing 2 of 2 here] | 0/6 | 4 | 0/6 | 6 | 0/6 | 22 | 0/6 | -2% | 0/6 | 10% | 0/6 | 24% | –
Pt(cis-dach)(ascorbate)2·2H2O [[Pt(cis-dach)-(ascorbate)2]] | 0/6 | 21 | 0/6 | 12 | 0/6 | 29 | 0/6 | 60% | 5/6 | 97% | 1/6 | 68% | –
[Pt(cis-dach)(ascorbate)].3H2O [[Pt(cis-dach)-(ascorbate)] (Isomer VI)] | 0/6 | 23 | 0/6 | 26 | 0/6 | 22 | 6/6 and 0/6 | – | 4/6 and 3/6 | 99% and 77% | 5/6 | 93% | 30-Day Survivors [13]: 0/6; %ILS [14]: 15%
N.N.[Cl][Pt][Cl] [Control, cis-[Pt(NH3)2cI2], reference compound] | – | – | – | – | – | – | – | – | – | – | – | – | Control 30-Day Survivors [18]: 6/6 and 1/6 and 4/6 and 3/6 and 2/6 and 0/6 and 5/6; Control %ILS [18]: 98% and 67% and 77% and 86% and 79% and 76% and 71% and 94%
Pt(trans-R,R-dach)(ascorbate) [Pt(trans-R,R-dach) (ascorbate) (Ex. 12)] | – | – | – | – | – | – | – | – | – | – | – | – | 30-Day Survivors [3]: 3/6; %ILS [3]: 67%; 30-Day Survivors [4]: 3/6; %ILS [4]: 83%; 30-Day Survivors [5]: 4/6; %ILS [5]: 82%; 30-Day Survivors [6]: 0/6; %ILS [6]: -75%; 30-Day Survivors [19]: 0/6; %ILS [19]: -78%; 30-Day Survivors [20]: 0/6; %ILS [20]: -94%
[Pt (cis-dach) (isoascorbate) [[Pt(cis-dach)-(isoascorbate)]] | 0/6 | 9 | 0/6 | 6 | 0/6 | 6 | 0/6 | 17% | 0/6 | 4% and 10% | 0/6 | 12% and 22% | 30-Day Survivors [15]: 2/6; %ILS [15]: 70%; 30-Day Survivors [16]: 2/6; %ILS [16]: 92%; 30-Day Survivors [17]: 3/6; %ILS [17]: 82%; 30-Day Survivors [21]: 0/6; %ILS [21]: 54%
